Values quoted from earlier work as cited in publication PMC4546427, “Stereoselective Regulation of P-gp Activity by Clausenamide Enantiomers in Caco-2, KB/KBv and Brain Microvessel Endothelial Cells” (PLoS ONE, 2015).
Like-named read-outs stand apart in the source and are kept apart here.

System: P-gp ATPase
Design: method as in PMID 9300798
Conditions: cited from earlier work

CC(=O)[C@H]1CC[C@H]2[C@@H]3CCC4=CC(=O)CC[C@]4(C)[C@H]3CC[C@]12C [progesterone]
Effect on P-gp ATPase activity (concentrations above 25 μmol/L): inhibited | Effect on P-gp ATPase activity (low concentration 6.3 μmol/L): stimulated
